In ChEMBL document CHEMBL1201862, “PubChem BioAssay data set” (2004):
Active and inactive are the calls of the source.

What was measured:
[1] = molecular target: T1, Aminopeptidase N (Plasmodium falciparum FcB1/Columbia, UniProt O96935); test: P. falciparum M1AAP inhibitors, biochemical, fluorogenic H-Leu-NHMec substrate, 1536-well (AID 1445); design: species or system Plasmodium falciparum 3D7, 3D7
T1 sequence (O96935 whole entry): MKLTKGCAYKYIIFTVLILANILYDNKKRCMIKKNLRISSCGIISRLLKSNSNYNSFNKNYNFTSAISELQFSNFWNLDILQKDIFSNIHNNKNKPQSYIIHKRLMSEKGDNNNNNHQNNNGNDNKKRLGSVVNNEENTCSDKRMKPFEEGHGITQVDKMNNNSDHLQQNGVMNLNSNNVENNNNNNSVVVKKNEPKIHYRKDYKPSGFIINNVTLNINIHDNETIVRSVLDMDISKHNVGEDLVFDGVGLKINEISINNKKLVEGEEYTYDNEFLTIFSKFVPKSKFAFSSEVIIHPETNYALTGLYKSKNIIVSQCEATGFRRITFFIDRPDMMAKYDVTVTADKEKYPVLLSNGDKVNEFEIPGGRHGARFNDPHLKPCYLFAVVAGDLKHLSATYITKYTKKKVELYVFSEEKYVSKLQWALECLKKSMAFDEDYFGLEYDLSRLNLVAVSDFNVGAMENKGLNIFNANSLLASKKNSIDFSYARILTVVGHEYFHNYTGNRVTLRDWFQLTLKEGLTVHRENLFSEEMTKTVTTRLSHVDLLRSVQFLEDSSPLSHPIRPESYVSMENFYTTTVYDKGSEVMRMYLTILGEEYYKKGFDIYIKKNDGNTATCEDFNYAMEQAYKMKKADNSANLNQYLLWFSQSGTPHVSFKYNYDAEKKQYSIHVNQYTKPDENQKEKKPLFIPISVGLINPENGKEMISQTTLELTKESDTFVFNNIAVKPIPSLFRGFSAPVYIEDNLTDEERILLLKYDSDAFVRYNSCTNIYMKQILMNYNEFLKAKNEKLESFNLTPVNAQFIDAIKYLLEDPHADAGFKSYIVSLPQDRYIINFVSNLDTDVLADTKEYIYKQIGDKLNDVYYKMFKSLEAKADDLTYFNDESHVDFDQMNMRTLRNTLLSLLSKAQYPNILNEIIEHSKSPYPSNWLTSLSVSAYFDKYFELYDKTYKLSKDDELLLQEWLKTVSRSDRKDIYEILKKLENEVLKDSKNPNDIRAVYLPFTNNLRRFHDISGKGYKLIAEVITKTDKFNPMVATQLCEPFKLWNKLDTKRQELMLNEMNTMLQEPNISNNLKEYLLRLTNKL

[2] = molecular target: T2, Dual specificity protein phosphatase 3 (Homo sapiens, UniProt P51452); test: VHR1 phosphatase inhibitors, primary screen, biochemical, absorbance, uHTS (AID 1654)
[3] = molecular target: T2, Dual specificity protein phosphatase 3; test: VHR1 phosphatase inhibitors, biochemical (AID 1878)
[4] = molecular target: T3, Dual specificity protein phosphatase 6 (Rattus norvegicus, UniProt Q64346); test: MKP-3 phosphatase inhibitors, primary screen, biochemical, rat enzyme, in vitro (AID 425)
[5] = molecular target: T2, Dual specificity protein phosphatase 3; test: SAR VHR1 absorbance Assay for In Vitro dose response studies. [Related pubchem assays (depositor defined):AID1654, AID1661, AID1878, AID1992, AID2004]
[6] = molecular target: T2, Dual specificity protein phosphatase 3; test: SAR VHR1 Fluorescent Assay for In Vitro dose response studies. [Related pubchem assays (depositor defined):AID1654, AID1661, AID1878, AID1992, AID2004, AID2070, AID2085]; assay type: functional
[7] = molecular target: T4, Tyrosine-protein phosphatase non-receptor type 7 (Homo sapiens, UniProt P35236); test: redox-dependent HePTP inhibition, mechanism study, biochemical, fluorescence (AID 2068); assay type: functional
T4 sequence (P35236 whole entry): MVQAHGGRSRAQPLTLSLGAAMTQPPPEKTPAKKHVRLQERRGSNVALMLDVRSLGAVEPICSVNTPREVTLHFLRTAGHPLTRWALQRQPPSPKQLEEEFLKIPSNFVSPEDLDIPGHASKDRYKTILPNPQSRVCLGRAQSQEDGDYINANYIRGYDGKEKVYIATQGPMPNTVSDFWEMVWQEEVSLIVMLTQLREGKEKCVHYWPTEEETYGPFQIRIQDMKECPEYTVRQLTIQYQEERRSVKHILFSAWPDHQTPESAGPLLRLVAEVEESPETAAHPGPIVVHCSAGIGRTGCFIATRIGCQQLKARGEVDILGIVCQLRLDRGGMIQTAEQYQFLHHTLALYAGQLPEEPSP

[8] = molecular target: T3, Dual specificity protein phosphatase 6; assay type: functional
[9] = molecular target: Genome polyprotein (dengue virus type 2, UniProt P29990); test: Dengue-2 NS5 methyltransferase inhibitors, primary screen, biochemical, confirmation dose response (AID 588689); assay type: functional
[10] = molecular target: DNA (cytosine-5)-methyltransferase 1 (Homo sapiens, UniProt P26358); test: DNMT1 methyltransferase inhibitors, confirmation, biochemical, fluorescent molecular beacon (AID 602386); assay type: functional
[11] = molecular target: NAD-dependent protein deacylase sirtuin-5, mitochondrial (Homo sapiens, UniProt Q9NXA8); test: SIRT5 desuccinylase inhibitors, dose response, biochemical, fluorescence imaging, cherry-pick, set 5 (AID 720591);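 note: desuccinylation of succinyl peptide AMC substrate read as fluorescence after trypsin release; potency of inhibitors that lower fluorescence and may act on trypsin instead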
[12] = tested on: Jurkat; test: antigen receptor-induced NF-kB inhibitors, dose response, Jurkat, luciferase reporter, luminescence, B- and T-cell (AID 489004); assay type: functional, cell-based; conditions: Homo sapiens;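 note: NF-kB luciferase reporter Jurkat cells stimulated with PMA plus ionomycin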
[13] = cytotoxicity in HEK-293T NF-kB-Luc cells, dose response, cytotoxicity control for B/T-cell NF-kB inhibitor project, cell-based, uHTS hits (AID 489019); assay type: functional;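 note: IC50 reflects cytotoxicity as loss of cell viability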
[14] = molecular target: T5, Microphthalmia-associated transcription factor (Homo sapiens, UniProt O75030); test: TRPM1 promoter luciferase signal decrease, dose response, MITF inhibitor project, cell-based, SK-MEL-5, cherry-picked, set 3 (AID 493073); assay type: functional
T5 sequence (O75030 whole entry): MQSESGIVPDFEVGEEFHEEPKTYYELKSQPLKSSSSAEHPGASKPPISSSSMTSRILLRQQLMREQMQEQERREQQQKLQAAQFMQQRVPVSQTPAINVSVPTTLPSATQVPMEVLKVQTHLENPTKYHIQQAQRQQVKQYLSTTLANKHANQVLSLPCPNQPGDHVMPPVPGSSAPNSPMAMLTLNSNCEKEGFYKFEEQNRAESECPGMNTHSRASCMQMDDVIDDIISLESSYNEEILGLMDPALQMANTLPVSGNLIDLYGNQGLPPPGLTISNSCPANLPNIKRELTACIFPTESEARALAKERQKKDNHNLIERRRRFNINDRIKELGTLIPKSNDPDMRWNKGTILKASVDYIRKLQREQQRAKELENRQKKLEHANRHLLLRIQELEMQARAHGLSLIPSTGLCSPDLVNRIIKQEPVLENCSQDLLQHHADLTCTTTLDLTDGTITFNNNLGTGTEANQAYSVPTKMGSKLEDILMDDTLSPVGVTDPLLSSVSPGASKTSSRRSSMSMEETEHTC

[15] = tested on: A-375; test: MITF: Counter assay: A375 proliferation Measured in Cell-Based System Using Plate Reader - 2084-03_Inhibitor_Dose_DryPowder_Activity. [Related pubchem assays (depositor defined):AID488944]; assay type: functional; conditions: Homo sapiens
[16] = tested on: A-375; test: A375 melanoma cell viability reduction, dose response, counter-screen for MITF modulator project, cherry-pick samples, set 2 (AID 540335); assay type: functional, cell-based; conditions: Homo sapiens
[17] = insulin promoter down-regulators in MIN6 cells, imaging, high-content screening, mouse beta cells (AID 1628); assay type: functional
[18] = cytotoxicity in MIN6 insulinoma cells, dose response, cytotoxicity control, cell-based, mouse insulinoma (AID 2122); assay type: functional;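 note: confirmatory high-throughput counterscreen run to flag cytotoxic compounds; mouse MIN-6 beta cells carrying an insulin promoter eGFP reporter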
[19] = Shn3 3'UTR reporter inhibitors, dose response, cell-based, Clone20 osteoblasts, firefly luciferase, cherry-picked (AID 624132); assay type: functional;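 note: firefly luciferase luminescence from reporter carrying the Shn3 3'UTR in osteoblasts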
[20] = HepG2 cell cytotoxicity, dose response, cytotoxicity control for Shn3 inhibitor project, CellTiter-Glo, cherry-picked (AID 624134); assay type: functional, cell-based
[21] = control 3'UTR Renilla luciferase suppression, dose response, counter-screen for Shn3 inhibitor project, cell-based, Clone20-Shn3RL, cherry-picked (AID 624133); assay type: functional
[22] = molecular target: T6, Mannose-6-phosphate isomerase (Homo sapiens, UniProt P34949); test: Confirmation of compounds inhibiting phosphomannose isomerase (PMI) via a fluorescence intensity assay using a high concentration of mannose 6-phosphate. [Related pubchem assays (depositor defined):AID1209, AID1220, AID1545, AID1553, AID1620]
T6 sequence (P34949 whole entry): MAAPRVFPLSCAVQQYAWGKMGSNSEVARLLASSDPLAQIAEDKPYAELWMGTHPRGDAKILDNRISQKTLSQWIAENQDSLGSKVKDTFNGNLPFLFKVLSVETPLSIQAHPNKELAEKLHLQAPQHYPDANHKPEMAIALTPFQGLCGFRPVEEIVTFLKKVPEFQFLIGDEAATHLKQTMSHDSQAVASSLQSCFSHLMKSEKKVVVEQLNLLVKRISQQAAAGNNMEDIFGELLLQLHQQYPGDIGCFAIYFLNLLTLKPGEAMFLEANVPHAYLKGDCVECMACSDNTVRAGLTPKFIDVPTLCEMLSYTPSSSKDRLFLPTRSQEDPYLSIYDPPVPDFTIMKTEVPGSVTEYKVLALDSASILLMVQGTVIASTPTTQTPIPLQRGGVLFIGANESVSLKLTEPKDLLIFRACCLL

[23] = molecular target: T6, Mannose-6-phosphate isomerase; test: PMI enzyme inhibitors, confirmation, biochemical, fluorescence intensity (AID 1535)
[24] = molecular target: Phosphomannomutase 2 (Homo sapiens, UniProt O15305); test: Counter screen SAR assay for PMM2 inhibitors via a fluorescence intensity assay. [Related pubchem assays (depositor defined):AID1545, AID1574]
[25] = molecular target: Phosphoethanolamine/phosphocholine phosphatase (Homo sapiens, UniProt Q8TCT1); test: SAR assay for compounds that inhibit PHOSPHO1. [Related pubchem assays (depositor defined):AID1545, AID1565, AID1574]
[26] = molecular target: T7, Cytochrome P450 1A2 (Homo sapiens, UniProt P05177);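 note: PubChem cytochrome P450 panel assay, CYP1A2 panel member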
T7 sequence (P05177 whole entry): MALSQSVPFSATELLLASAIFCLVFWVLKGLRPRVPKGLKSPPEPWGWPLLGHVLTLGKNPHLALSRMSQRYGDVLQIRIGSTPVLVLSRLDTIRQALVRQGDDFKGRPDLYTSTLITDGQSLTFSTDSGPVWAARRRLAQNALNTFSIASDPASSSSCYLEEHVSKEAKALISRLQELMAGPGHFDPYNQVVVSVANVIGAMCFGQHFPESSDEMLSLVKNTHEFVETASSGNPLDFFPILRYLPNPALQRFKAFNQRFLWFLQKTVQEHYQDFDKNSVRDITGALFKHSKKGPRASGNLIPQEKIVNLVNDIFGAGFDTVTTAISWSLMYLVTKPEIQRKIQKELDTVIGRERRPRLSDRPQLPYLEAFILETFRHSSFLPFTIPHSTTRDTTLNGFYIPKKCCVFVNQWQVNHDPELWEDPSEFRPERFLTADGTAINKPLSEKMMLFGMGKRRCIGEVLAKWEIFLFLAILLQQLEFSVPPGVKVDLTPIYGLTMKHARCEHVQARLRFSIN

[27] = molecular target: Trypsin (Sus scrofa, UniProt P00761); test: porcine trypsin inhibitors, dose response, selectivity assay for Rce1 protease inhibitor project, biochemical, quenched peptide fluorescence, cherry-pick (AID 488789)
[28] = molecular target: T8, CAAX prenyl protease 2 (Saccharomyces cerevisiae S288c, UniProt Q03530); assay type: biochemical
T8 sequence (Q03530 whole entry): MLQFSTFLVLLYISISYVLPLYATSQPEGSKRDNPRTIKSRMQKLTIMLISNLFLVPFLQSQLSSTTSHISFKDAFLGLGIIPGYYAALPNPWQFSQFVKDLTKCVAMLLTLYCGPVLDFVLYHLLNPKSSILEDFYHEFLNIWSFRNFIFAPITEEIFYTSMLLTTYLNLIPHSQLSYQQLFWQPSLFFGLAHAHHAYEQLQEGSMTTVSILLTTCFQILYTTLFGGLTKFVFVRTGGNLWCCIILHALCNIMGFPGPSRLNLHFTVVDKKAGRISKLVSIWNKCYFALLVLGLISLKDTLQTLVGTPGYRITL

[29] = molecular target: CAAX prenyl protease 1 (Saccharomyces cerevisiae S288c, UniProt P47154); test: Ste24 protease inhibitors, dose response, biochemical, S. cerevisiae, plate reader, cherry-pick (AID 488815)
Chain of CAAX prenyl protease 1 (P47154 whole entry): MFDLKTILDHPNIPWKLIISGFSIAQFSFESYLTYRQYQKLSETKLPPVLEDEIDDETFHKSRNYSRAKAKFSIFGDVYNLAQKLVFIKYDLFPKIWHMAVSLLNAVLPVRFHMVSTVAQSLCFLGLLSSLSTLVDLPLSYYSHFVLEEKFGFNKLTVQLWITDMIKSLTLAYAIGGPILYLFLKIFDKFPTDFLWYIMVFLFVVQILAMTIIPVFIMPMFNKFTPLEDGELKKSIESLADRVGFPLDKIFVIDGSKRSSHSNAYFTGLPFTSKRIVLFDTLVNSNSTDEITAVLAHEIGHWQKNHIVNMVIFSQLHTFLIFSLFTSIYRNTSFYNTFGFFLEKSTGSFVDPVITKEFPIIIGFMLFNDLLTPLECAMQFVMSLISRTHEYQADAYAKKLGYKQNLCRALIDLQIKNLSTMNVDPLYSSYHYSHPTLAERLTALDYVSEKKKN

T2 sequence (P51452 whole entry): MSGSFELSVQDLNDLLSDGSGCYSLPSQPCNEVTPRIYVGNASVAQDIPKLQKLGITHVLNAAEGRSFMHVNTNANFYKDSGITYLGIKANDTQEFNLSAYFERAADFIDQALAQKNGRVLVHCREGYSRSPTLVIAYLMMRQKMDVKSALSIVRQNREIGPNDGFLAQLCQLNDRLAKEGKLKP
T3 sequence (Q64346 whole entry): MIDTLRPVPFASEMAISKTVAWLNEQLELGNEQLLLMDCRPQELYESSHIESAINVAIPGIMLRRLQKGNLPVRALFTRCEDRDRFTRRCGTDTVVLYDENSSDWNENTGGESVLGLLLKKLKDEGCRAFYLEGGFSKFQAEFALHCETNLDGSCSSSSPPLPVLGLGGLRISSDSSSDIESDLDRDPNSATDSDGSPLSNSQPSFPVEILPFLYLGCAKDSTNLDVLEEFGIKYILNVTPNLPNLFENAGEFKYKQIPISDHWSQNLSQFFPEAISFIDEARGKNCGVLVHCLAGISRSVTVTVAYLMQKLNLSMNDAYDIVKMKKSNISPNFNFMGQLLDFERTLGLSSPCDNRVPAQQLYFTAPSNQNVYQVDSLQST
Chain of Genome polyprotein (P29990 2492-3391 limits assumed): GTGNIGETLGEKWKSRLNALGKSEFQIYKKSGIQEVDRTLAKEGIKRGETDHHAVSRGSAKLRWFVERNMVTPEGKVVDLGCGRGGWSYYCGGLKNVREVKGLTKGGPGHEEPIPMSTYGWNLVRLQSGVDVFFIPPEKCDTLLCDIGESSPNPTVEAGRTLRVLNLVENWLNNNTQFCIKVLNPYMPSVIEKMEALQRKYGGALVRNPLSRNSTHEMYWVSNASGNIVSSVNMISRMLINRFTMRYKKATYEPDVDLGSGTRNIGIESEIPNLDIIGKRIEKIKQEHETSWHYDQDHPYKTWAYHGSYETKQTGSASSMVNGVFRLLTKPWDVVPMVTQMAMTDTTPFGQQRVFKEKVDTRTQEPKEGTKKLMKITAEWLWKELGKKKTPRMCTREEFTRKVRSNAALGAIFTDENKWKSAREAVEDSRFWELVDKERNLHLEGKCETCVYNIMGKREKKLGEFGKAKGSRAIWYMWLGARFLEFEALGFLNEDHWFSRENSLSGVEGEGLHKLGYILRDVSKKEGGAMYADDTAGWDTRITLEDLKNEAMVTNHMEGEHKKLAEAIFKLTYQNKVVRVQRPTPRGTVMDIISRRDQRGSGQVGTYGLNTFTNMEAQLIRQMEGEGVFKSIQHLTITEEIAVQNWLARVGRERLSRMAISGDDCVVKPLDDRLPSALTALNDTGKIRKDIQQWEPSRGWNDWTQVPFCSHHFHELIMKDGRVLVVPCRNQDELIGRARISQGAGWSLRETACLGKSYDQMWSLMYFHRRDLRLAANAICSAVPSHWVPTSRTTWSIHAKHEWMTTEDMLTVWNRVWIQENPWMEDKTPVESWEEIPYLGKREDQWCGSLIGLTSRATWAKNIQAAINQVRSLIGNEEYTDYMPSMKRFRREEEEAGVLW
Chain of Phosphomannomutase 2 (O15305 whole entry): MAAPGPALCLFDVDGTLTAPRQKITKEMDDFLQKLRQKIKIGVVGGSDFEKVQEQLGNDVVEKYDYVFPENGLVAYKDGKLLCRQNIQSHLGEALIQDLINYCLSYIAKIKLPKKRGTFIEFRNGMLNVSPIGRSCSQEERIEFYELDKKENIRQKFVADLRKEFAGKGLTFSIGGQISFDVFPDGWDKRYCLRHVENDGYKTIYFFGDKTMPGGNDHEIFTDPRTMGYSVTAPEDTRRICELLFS
Chain of Phosphoethanolamine/phosphocholine phosphatase (Q8TCT1 whole entry): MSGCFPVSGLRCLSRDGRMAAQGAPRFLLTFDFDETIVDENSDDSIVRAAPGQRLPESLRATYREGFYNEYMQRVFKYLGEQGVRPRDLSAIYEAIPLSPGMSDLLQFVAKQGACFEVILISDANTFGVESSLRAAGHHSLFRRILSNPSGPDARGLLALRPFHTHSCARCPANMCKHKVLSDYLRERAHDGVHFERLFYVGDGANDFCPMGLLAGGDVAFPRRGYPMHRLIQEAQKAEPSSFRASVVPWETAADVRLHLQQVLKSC
Chain of NAD-dependent protein deacylase sirtuin-5, mitochondrial (Q9NXA8 whole entry): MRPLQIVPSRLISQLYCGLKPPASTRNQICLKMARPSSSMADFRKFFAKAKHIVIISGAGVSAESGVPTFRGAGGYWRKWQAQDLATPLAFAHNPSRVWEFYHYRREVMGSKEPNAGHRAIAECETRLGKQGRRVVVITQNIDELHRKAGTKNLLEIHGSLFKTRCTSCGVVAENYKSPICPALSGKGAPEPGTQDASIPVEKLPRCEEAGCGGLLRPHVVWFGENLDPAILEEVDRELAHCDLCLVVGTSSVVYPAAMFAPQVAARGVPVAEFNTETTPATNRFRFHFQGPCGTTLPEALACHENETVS
Chain of Trypsin (P00761 whole entry): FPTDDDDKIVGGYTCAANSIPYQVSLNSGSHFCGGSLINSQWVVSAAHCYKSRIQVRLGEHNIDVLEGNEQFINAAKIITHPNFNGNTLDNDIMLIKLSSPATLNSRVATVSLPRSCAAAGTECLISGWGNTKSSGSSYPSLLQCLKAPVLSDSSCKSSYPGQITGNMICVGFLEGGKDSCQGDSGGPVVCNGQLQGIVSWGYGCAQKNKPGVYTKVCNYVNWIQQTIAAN
Chain of DNA (cytosine-5)-methyltransferase 1 (P26358 whole entry): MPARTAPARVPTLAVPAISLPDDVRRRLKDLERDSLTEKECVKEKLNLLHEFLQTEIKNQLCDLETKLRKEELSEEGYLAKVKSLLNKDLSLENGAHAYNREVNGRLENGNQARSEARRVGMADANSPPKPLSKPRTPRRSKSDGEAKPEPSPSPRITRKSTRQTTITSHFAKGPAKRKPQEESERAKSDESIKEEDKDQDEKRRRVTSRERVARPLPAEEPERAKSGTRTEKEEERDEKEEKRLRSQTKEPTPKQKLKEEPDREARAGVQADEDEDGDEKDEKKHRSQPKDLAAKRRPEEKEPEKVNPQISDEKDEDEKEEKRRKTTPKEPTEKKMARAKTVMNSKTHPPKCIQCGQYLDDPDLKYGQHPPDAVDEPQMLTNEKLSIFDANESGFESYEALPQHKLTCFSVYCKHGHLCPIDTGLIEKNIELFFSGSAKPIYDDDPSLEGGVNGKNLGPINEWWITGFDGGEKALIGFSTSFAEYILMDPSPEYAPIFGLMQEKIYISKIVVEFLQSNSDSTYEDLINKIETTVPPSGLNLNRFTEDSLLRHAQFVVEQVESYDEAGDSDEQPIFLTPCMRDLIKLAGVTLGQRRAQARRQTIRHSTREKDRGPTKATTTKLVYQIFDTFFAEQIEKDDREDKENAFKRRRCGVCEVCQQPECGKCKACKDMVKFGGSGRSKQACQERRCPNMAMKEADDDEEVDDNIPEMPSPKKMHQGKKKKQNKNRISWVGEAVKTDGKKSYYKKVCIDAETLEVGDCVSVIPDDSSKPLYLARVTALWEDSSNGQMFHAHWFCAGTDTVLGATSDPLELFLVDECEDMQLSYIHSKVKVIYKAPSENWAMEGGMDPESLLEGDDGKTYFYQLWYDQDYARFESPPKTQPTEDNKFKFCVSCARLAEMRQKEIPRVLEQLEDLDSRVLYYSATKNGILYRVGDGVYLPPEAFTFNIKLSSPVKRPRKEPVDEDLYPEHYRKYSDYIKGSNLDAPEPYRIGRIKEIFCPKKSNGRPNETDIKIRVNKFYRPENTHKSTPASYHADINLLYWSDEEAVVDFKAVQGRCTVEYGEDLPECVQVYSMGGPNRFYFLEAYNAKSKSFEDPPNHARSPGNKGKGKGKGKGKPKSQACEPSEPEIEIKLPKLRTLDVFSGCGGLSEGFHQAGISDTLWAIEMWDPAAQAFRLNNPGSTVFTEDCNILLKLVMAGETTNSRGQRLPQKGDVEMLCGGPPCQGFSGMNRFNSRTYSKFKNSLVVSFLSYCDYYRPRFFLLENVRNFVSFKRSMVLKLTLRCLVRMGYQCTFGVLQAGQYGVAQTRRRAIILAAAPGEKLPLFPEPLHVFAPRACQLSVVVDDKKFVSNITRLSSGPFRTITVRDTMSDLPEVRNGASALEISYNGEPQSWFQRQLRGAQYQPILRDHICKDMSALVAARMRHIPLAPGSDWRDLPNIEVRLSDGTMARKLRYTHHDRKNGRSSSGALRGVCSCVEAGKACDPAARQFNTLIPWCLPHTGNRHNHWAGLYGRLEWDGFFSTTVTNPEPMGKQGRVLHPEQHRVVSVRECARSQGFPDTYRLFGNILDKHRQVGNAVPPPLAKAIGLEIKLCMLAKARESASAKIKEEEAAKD

For O=C(O)CSc1cc(C(=O)c2ccccc2O)cn2c(=O)c3c4c(sc3nc12)CCCC4, the IC50 [1] was 19.5 µM (active), the IC50 [2] was 19 µM (active) and the IC50 [3] was 7.42 µM (active). For the same compound, the IC50 [4] was > 158 µM (not active), the IC50 [5] was 2.62 µM (active) and the IC50 [6] was 13.5 µM (active). For the same compound, the IC50 [7] was 0.576 µM (active), the IC50 [8] was > 99 µM (inactive) and the IC50 [9] was 94.1 µM (active). For the same compound, the IC50 [10] was 14.1 µM (active) and the AC50 [11] was 5.07 µM (active).

With CCOc1ccc(/C=C2\SC(=S)N(CCC(=O)O)C2=O)cc1 the IC50 [12] was < 0.16 µM (active), the IC50 [13] was > 80 µM (inactive) and the AC50 [14] was 0.577 µM (active). For the same compound, the AC50 [15] was > 35 µM (active) and the AC50 [16] was > 35 µM (active).

With COc1ccccc1NC(=O)Cc1nn(C)c(=O)c2ccccc12 the IC50 [17] was 3.14 µM (active), the IC50 [18] was 2.11 µM (active) and the AC50 [19] was 1.97 µM (active). The AC50 [20] was 58.6 µM (active) and the AC50 [21] was 2.05 µM (active).

In the case of Cc1ccc(C)c(N2Cc3ccccc3C2=O)c1, the IC50 [22] is reported as > 100 µM (inactive), the IC50 [23] is reported as > 100 µM (inactive) and the IC50 [24] is reported as > 100 µM (inactive). For the same compound, the IC50 [25] was > 100 µM (inactive).

With N#CC[N+]1(Cc2ccccn2)CCCC1.O=S(=O)([O-])c1ccccc1 the AC50 [26] was “inactive”.

For COc1cccc2c(O)c(C(=O)O)cnc12, the AC50 [27] was 64.1 µM (active), the AC50 [28] was 36 µM (active) and the AC50 [29] was 6.84 µM (active).
